This is an account of results in patent US12138266B2, “Folate preparations” (APROFOL AG, priority 2018, dated 2024).

Data set [1] has as its system reconstructed skin models (epiCS). The data set is described as follows: Bioavailability: transport through reconstructed skin models into basal compartment (LC/MS). Format: in vitro ADME, human. An excerpt:
In order to test the bioavailability in tissues such as skin, reconstructed skin models (epiCS, CS-1001, CellSystems, Troisdorf) were used which are generated from primary human keratinocytes. These models show a barrier very similar to human skin. They are regularly used as test models for the approval-relevant determination of corrosive or irritating effects of cosmetic raw materials. The skin models can usually be treated with finished products, as they are intended for use by the consumer. Nevertheless, before the skin models are treated with the test products, an assessment of the tolerability of the models is made to avoid overdosing.
The skin models were cultured on a porous membrane as mentioned above. The skin cells growing on it separate an apical compartment (with the skin model) from a basal compartment (with the nutrient medium). Mass transport from the apical to the basal compartment is thus almost exclusively possible through the cells. The only alternative to this is paracellular diffusion, which however, due to the functional tight junctions, is only possible for a few molecules and to a very limited extent. To determine the bioavailability of the products, the barrier is checked for leaks before use by means of resistance measurements. […] Suitable skin models are then treated topically with the test products. After 4 h, 8 h and 24 h, samples of the medium were taken in the basal part of the models to check for the presence and concentration of folates. Each test product and controls are tested at a concentration of three replicates each. The studies were repeated to obtain results from two independent runs. The determination of the folate contents of the media samples was started with the analysis of the 24 h values.
The analysis of the media samples was carried out by way of a LC/MS method established at a commercial service provider. The sensitivity of the method is in the range of 1 nmol/L. Before the start of the investigations, an estimate of the feasibility or a preliminary test was carried out in order to be able to assess the suitability of the method.
In addition, the topically applied amount was reduced to 50 μL each. In addition, in the main experiment, the lower compartment was not filled with medium (contains folic acid) but with 1 mL Hank balanced salt solution (without folic acid). Following a total of 24 hours incubation with the test substances, the skin models were again incubated with Resazurin to. […] In the main trial, two independent passes were completed.
In the lower compartment, 1 mL each of HBSS was initially charged. The results shown in the figures mentioned above were determined from 100 μL aliquots of this buffer amount.
In the apical compartment, 3 μmol of folate (solutions) or 0.3 μmol of folate are supplemented (in 50 μL).

Data set [2] deals with primary keratinocytes of human skin. Description: Scratch Assay (in vitro wound healing model). Format: cell-based. The note with it: for free wound surface in photographs: 0.1%. The source says: To examine the effect of different folate preparations on wound healing the in vitro model Scratch Assay was employed. This in vitro model comprises the defined injuring of a closed cell layer and the subsequent regrowth of the cells to a closed layer in the presence of the test-substance compared to appropriate controls, i.e. (untreated) cells with no test-substance present.
The experimental procedure for the Scratch Assay was as follows: The employed cells are primary keratinocytes of human skin (C-12005, Promocell, Heidelberg, Germany). […] Three different dosages were then used for the Scratch Assay. Further, cells were cultivated in growth-limiting medium in order to show a possible growth promoting effect of the test substances. For the medium used (C-20011, Promocell, Heidelberg, Germany) a growth limitation could be achieved by either the omission or dilution of epidermal growth factor (EGF) or of a complex mixture of undefined factors derived from […] BPE). Usually, growth-limiting medium was achieved by the omission of EGF. For the actual Scratch Assay keratinocytes were cultivated in appropriate cell culture plates (6-well plates, 657160, Greiner BioOne, Frickenhausen, Germany) bearing position markings. Cells were grown to a closed monolayer. Then, cells were scratched with pipette tip along the position markings, thereby generating a cell free area (scratch, injury). Cell monolayers were washed to remove partially detached cells and then covered with medium comprising the test-substances in appropriate dosages. Regrowth of the cells into the cell free area was observed over time at 0 h, 6 h and 24 h and photographically documented at these times. Analysis was done by marking and calculating the cell-free area (software ImageJ) and comparing the calculated areas at the different time point. […]
FIGS. 4 and 5 show the cell-free area of the induced scratch after 6 h or 24 h. The measured values were expressed as a percentage of the starting area of the respective treatment group. […]

The test system is the same in data set [3]. The settings on record: keratinocyte monolayer, MTT, 24 h; concentration based on the undiluted solution (2.5%) or the cream (=100%). The procedure:
In a preliminary experiment, the usable dose was determined.
For this test, the keratinocytes were seeded on 96-well plates and incubated with five dilutions of the solutions or the cream for 24 h. Subsequently, a vital dye was added and finally, the colour change caused by the conversion of the vital dye in living cells was photometrically quantified.
FIG. 1 and FIG. 2 show the determination of the usable dosage of the test substances. Cytotoxicity test with keratinocytes in monolayer culture after conversion of the vital dye MTT by living cells. The concentration data are based on the undiluted solutions or the cream (=100%). Treatment time=24 h. Untreated cultures served as negative controls. SDS served as a positive control (“dead control”). N=6+SEM
IC70 values were calculated by nonlinear regression (Hill Slope, GraphPad Prism 5.04). The term IC70 denotes the concentration at which the viability of the treated cell culture is reduced to 70% of the untreated control. IC70 is often referred to as the border between toxicity and non-toxic effect.

The test system of the next data set is human skin. The data set is described as follows: Skin penetration determined by Raman spectroscopy on forearm of a subject. The class given is in vivo. The note with it: for Calcium levoleucovorin penetrated into the skin per area: surface to depth of 30 μm. The procedure: In a further experiment it was examined if calcium levoleucovorin is able to penetrate skin. Penetration depth was determined by way of Raman spectroscopy. The measurement device was an inverse Raman microscope model 3510 with 60× oil immersion lens and evaluation software SkinTools of the company RiverD Rotterdam and the method were 10 profiles per application, measuring time of 5 seconds per measuring point, 7 steps of 2 μm, 4 steps of 4 μm, spectral range of 400-1800 cm^−1, at a laser excitation wavelength of 785 nm. Signals were generated with the software SkinTools that contains various skin and device specific spectra. The user can add their own spectra to the library. The evaluation is carried out via the CLS procedure (least squares method). The signals are output as a fit coefficient normalized to the fit coefficient of keratin.
For a quantitative indication of the result, a calibration must be carried out with standard series (see Tab. 1 and Tab. 2). First, the sensitivity of bovine serum albumin (BSA) is determined and the mass concentration BSA in g/ml is plotted against the BSA fit coefficient. A linear regression with fixed zero gives slope S. For the active substance, the molar concentration in mmol/ml is plotted against the drug coefficient multiplied by the BSA fit coefficient. This gives the slopes SA of the active ingredient. With the slopes, a so-called quantification factor of the drug can be created (SA/S=C). Multiplied by the factor C, the coefficient of fit of the active substance becomes the quantified value with the unit mmol/g of keratin.
The application of the drug or placebo (sodium gluconate) to the skin of a subject was done as follows: 20 μL was pipetted into an allergy patch and this was then stuck onto the forearm of a subject for a period of 30, 60, 120 and 240 minutes. At the end of the application time, the allergy patch was removed. Prior to determining the Raman profiles, the treated skin area was rubbed with a dry paper towel.

As for `N=C(N)NCCC[C@H](N)C(=O)O.N=C(N)NCCC[C@H](N)C(=O)O.Nc1nc2c(c(=O)[nH]1)N(C=O)[C@@H](CNc1ccc(C(=O)N[C@@H](CCC(=O)O)C(=O)O)cc1)CN2` [L-FTHF di arginine, 5-formyl-(6S)-tetrahydrofolic acid di L-arginine salt], in data set [1] (after 24 h), the “methylfolate concentration in basal compartment (comparison)” value (“methylfolate concentration … (comparison)” for short) was “approximately half”. Further, the “regrowth of cells into cell-free area of scratch” value in data set [2] (after 24 h, versus standard medium and FBS control) is “promoted dose-dependent reversal of “healing””. In data set [3], the “IC70 (concentration at which viability is reduced to 70% of the untreated control; usable dose)” value amounted to 0.12%.
For “5-formyl-(6S)-tetrahydrofolic acid calcium salt [L-FTHF Ca]”, the “folic acid concentration (comparison with other skin models)” value in data set [1] (after 24 h) is “twice as high”. Moreover, the “methylfolate concentration … (comparison)” value in data set [1] (after 24 h) is given as “relatively high”. Moreover, in data set [1] (after 24 h, outside calibration line, absolute values uncertain), the “formylfolate concentration in basal compartment” value was 150 µmol/L. Moreover, in data set [1] (after 24 h supplementation), the “folic acid (folate) concentration in basal compartment” value is given as “about 200 nmol/L”. Further, the “concentration profile in skin over application time” value in the data set with human skin (30 to 240 minutes application time) was “tendency to increased calcium levoleucovorin concentration both in the top 5 μm and deeper layers of the skin”. Also, the Amount recovered with human skin (application period 30 min) is 3.76 +/− 2.82 % of amount applied; in the data set on human skin (application period 60 min), 3.28 +/− 2.58 % of amount applied; in the data set with human skin (application period 120 min), 6.3 +/− 8.22 % of amount applied; with human skin (application period 240 min, listed as Calcium levoleucovorin, calcium salt) it was 9.96 +/− 3.26 % of amount applied; in the data set on human skin (application period 240 min, listed as calcium levoleucovorin, calcium salt), 10 % of amount applied. Moreover, the “Calcium levoleucovorin penetrated into the skin per area” value in the data set on human skin (application period 30 min) is 0.37 +/− 0.27 μmol/cm^2; in the data set on human skin (application period 60 min) it was 0.32 +/− 0.25 μmol/cm^2; with human skin (application period 120 min) it was 0.62 +/− 0.8 μmol/cm^2; in the data set with human skin (application period 240 min) it was 0.97 +/− 0.32 μmol/cm^2. For the same molecule, the “IC70 (concentration at which viability is reduced to 70% of the untreated control; usable dose)” value in data set [3] was 0.13%.
As to “5-methyl-(6S)-tetrahydrofolic acid di choline salt [L-MTHF di choline]”, the “methylfolate concentration … (comparison)” value in data set [1] (after 4 h, compared with models supplemented with L-FTHF or folate cream) was “significantly higher concentrations”; in data set [1] (after 8 h), “highest concentrations”; in data set [1] (after 24 h), “significantly higher than the highest standard”. Moreover, the “formylfolate concentration in recipient compartment (basal)” value in data set [1] (after 8 h) was “cannot be detected”. Moreover, in data set [1] (after 24 h), the “formylfolate in basal compartment samples” value is reported as “cannot be detected”. For the same molecule, the “methylfolate concentration in basal compartment, maximum” value in data set [1] (after 24 h, peak outside calibration line, absolute value uncertain) turned out to be 120 µmol/L. The “free wound surface in photographs” value in data set [2] (after 6 h) was “hardly any surface is overgrown”; in data set [2] (after 24 h), “it becomes difficult to mark a cell-free area”. Besides, the “IC70 (concentration at which viability is reduced to 70% of the untreated control; usable dose)” value in data set [3] was determined as 0.14%.
